Laboratory results: ChEMBL document CHEMBL1909046, “DrugMatrix in vitro pharmacology data”

Columns and labels:
[1] = target: Cytochrome P450 2E1 (Homo sapiens, UniProt P05181); settings: bti-tn-5b1-4; note: in other assays of this panel Not Active means under 50% inhibition at 10 µM
[2] = target: Matrix metalloproteinase-9 (Homo sapiens, UniProt P14780); experiment: biochemical; assay type: cell-based;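 note: inhibition of isolated MMP-9 enzyme activity toward a synthetic peptide substrate, from the DrugMatrix protease screening panel; in other assays of this panel Not Active means under 50% inhibition at 10 µM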
[3] = DRUGMATRIX: GABAA, Muscimol, Central radioligand binding (ligand: [3H] Muscimol); assay type: cell membranes, Rattus norvegicus, Wistar, Brain, Membrane; settings: Not Active = under 50% inhibition at 10 µM
[4] = DRUGMATRIX: Tumor Necrosis Factor (TNF), Non-Selective radioligand binding (ligand: [125I] TNF-alpha); assay type: cell membranes, Membrane; settings: u-937; Not Active = under 50% inhibition at 10 µM
[5] = target: T1, Interstitial collagenase (Homo sapiens, UniProt P03956); experiment: biochemical; assay type: tissue-based, Rheumatoid synovial fibroblasts;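 note: MMP-1 enzyme inhibition assay using a peptide substrate; in other assays of this panel Not Active means under 50% inhibition at 10 µM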
T1 sequence (P03956 whole entry): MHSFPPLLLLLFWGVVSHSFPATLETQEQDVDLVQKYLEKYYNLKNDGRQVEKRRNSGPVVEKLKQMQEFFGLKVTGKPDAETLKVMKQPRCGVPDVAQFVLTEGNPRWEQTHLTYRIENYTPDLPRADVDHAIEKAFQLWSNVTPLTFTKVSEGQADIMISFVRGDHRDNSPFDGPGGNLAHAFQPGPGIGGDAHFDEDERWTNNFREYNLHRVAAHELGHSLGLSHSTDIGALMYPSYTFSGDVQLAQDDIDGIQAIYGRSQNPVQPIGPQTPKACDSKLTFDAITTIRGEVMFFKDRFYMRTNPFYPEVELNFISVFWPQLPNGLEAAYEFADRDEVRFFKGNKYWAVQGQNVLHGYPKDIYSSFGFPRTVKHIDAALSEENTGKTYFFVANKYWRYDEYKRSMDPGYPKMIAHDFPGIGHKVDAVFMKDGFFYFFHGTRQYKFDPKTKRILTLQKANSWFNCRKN

[6] = target: 5-hydroxytryptamine receptor 1B (Rattus norvegicus, UniProt P28564); assay type: cell membranes, Wistar, Cerebral cortex, Membrane; note: in other assays of this panel Not Active means under 50% inhibition at 10 µM
[7] = DRUGMATRIX: Calcium Channel Type L, Phenylalkylamine radioligand binding (ligand: [3H] (-)-Desmethoxyverapamil (D-888)); assay type: cell membranes, Rattus norvegicus, Wistar, Brain, Membrane; settings: Not Active = under 50% inhibition at 10 µM

Cytochrome P450 2E1, sequence (P05181 whole entry): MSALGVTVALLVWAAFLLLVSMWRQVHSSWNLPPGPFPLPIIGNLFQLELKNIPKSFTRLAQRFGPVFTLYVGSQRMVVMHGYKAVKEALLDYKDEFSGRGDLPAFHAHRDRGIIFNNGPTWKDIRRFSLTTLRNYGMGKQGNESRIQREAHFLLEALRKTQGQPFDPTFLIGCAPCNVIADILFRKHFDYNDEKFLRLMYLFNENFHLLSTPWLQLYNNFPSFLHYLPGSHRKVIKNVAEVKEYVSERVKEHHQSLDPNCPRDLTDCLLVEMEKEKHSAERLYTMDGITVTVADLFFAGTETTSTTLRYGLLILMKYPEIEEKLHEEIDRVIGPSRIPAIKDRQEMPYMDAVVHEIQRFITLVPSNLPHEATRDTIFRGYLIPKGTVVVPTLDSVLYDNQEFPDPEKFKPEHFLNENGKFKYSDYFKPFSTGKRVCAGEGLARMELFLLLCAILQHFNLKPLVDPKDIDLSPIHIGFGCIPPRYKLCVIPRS
5-hydroxytryptamine receptor 1B, sequence (P28564 whole entry): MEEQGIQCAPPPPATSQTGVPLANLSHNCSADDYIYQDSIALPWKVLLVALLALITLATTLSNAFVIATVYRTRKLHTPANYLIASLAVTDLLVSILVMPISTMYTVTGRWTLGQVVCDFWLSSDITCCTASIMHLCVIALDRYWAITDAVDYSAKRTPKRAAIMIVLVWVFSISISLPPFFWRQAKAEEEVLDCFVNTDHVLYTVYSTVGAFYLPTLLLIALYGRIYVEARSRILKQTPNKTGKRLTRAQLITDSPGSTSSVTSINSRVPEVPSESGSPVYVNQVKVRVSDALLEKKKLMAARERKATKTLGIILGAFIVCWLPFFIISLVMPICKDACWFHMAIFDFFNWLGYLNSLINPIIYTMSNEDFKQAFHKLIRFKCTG
Matrix metalloproteinase-9, sequence (P14780 whole entry): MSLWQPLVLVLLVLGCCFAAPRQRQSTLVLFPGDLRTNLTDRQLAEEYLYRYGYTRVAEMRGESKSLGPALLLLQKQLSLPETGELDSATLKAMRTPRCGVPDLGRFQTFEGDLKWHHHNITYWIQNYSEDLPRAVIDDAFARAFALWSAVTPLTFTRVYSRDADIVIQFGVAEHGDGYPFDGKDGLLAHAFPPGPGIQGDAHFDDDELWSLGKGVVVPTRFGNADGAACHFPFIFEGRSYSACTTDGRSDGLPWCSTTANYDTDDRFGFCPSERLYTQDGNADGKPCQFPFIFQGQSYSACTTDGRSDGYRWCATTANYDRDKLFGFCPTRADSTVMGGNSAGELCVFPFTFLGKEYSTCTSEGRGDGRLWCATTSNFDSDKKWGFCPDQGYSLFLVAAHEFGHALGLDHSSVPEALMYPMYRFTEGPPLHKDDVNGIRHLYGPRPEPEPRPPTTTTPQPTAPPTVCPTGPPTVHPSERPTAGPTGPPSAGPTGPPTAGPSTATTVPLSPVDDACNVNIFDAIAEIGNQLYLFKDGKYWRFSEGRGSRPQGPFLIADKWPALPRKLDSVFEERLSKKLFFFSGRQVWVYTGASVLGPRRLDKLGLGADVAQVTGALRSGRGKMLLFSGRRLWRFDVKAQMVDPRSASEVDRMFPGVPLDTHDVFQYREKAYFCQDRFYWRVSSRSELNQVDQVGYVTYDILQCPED

Structure (SMILES) | IC50 [1] | Ki [1] | IC50 [2] | IC50 [3] | Ki [3] | IC50 [4] | Ki [4] | IC50 [5] | IC50 [6] | IC50 [7] | Ki [7] | IC50 ([2]; read-out: IC50) [µM] | IC50 ([5]; read-out: IC50) [µM]
O=C(O)c1cccnc1Nc1cccc(C(F)(F)F)c1 [NIFLUMIC ACID] | Not Active | Not Active | Not Active | Not Active | Not Active | Not Active | Not Active | Not Active | Not Active | Not Active | Not Active |  | 
O=C(N/N=C/c1ccc([N+](=O)[O-])o1)c1cc([N+](=O)[O-])cc([N+](=O)[O-])c1O [NIFURSOL] | Not Active | Not Active | Not Active | Not Active | Not Active | Not Active | Not Active | Not Active | Not Active | Not Active | Not Active |  | 
COC(=O)Nc1nc2ccc(C(=O)c3cccs3)cc2[nH]1 [NOCODAZOLE] | Not Active | Not Active | Not Active | Not Active | Not Active | Not Active | Not Active | Not Active | Not Active | Not Active | Not Active |  | 
C#CC1(O)CC[C@H]2[C@@H]3CCC4=CC(=O)CC[C@@H]4[C@H]3CC[C@@]21CC (some centres not stated) [NORGESTREL] | Not Active | Not Active | Not Active | Not Active | Not Active | Not Active | Not Active | Not Active | Not Active | Not Active | Not Active |  | 
COC(=O)Nc1nc2ccc([S+]([O-])c3ccccc3)cc2[nH]1 (configuration not stated) [OXFENDAZOLE] | Not Active | Not Active | Not Active | Not Active | Not Active | Not Active | Not Active | Not Active | Not Active | Not Active | Not Active |  | 
CC(=O)O[C@H]1C(=O)[C@@]2(C)[C@H]([C@H](OC(=O)c3ccccc3)[C@]3(O)C[C@H](OC(=O)[C@H](O)[C@@H](NC(=O)c4ccccc4)c4ccccc4)C(C)=C1C3(C)C)[C@]1(OC(C)=O)CO[C@@H]1C[C@@H]2O [PACLITAXEL] | Not Active | Not Active | Not Active | Not Active | Not Active | Not Active | Not Active | Not Active | Not Active | Not Active | Not Active |  | 
C[n+]1ccc(-c2cc[n+](C)cc2)cc1.[Cl-].[Cl-] [PARAQUAT DICHLORIDE] | Not Active | Not Active | Not Active | Not Active | Not Active | Not Active | Not Active | Not Active | Not Active | Not Active | Not Active |  | 
CCn1cc(C(=O)O)c(=O)c2cnc(N3CCCC3)nc21 [PIROMIDIC ACID] | Not Active | Not Active | Not Active | Not Active | Not Active | Not Active | Not Active | Not Active | Not Active | Not Active | Not Active |  | 
C[n+]1ccccc1/C=N/O.[Cl-] [PRALIDOXIME CHLORIDE] | Not Active | Not Active | Not Active | Not Active | Not Active | Not Active | Not Active | Not Active | Not Active | Not Active | Not Active |  | 
COc1cc2nc(N3CCN(C(=O)c4ccco4)CC3)nc(N)c2cc1OC [PRAZOSIN] | Not Active | Not Active |  | Not Active | Not Active | Not Active | Not Active |  | Not Active | Not Active | Not Active | 6.96 | 4.04
C[C@]12C=CC(=O)C=C1CC[C@@H]1[C@@H]2[C@@H](O)C[C@@]2(C)[C@H]1CC[C@]2(O)C(=O)CO [PREDNISOLONE] | Not Active | Not Active | Not Active | Not Active | Not Active | Not Active | Not Active | Not Active | Not Active | Not Active | Not Active |  | 
CC(=O)[C@H]1[C@H](C#N)C[C@H]2[C@@H]3CC=C4C[C@@H](O)CC[C@]4(C)[C@H]3CC[C@@]21C [PREGNENOLONE CARBONITRILE] | Not Active | Not Active | Not Active | Not Active | Not Active | Not Active | Not Active | Not Active | Not Active | Not Active | Not Active |  | 
